From patent US20090093618A1, “STREPTAVIDIN-BIOTIN-LINK ANTIBODY-HAPTEN SYSTEM” (The Regents OF THE UNIVERSITY OF CALIFORNA, priority 2006, published 2009)

How the values were obtained:
antibody 2D12.5 = test: Competitive immunoassay (ELISA) of metal-DOTA complexes relative to Y-DOTA; type: binding, mouse; settings: 37° C.; for relative binding affinity compared with Y-DOTA (in words): 15 ions tested
Source text: FIG. 13 is graphical display showing the relative binding of metal-DOTA complexes to antibody 2D12.5. A representative set of competitive binding curves obtained from ELISA experiments described in Example 3 below. Error bars (representing the standard error of the mean) are shown, but are generally smaller than the data points.
To determine the metal selectivity of the antibody 2D12.5, a competitive immunoassay was used to measure the binding constants of multiple metal-DOTA complexes relative to Y^3+-DOTA.
We examined the monoclonal antibody 2D12.5, initially developed to bind specifically to Y-DOTA for targeted radiotherapy (see, e.g., Goodwin et al., Cancer Res. 54: 5937-5946 (1994)), in order to determine the scope of its activity. To assess the metal selectivity of antibody 2D12.5, a competitive immunoassay to measure the binding constants of various metal-DOTA complexes relative to the original Y^3+ complex was developed (FIG. 12). Briefly, 2D12.5 was incubated at 37° C. in the presence of immobilized Y-DOTA and a soluble metal-DOTA competitor. The metal-DOTA concentration was varied from μM to pM in order to determine the relative binding affinity of 2D12.5 for each metal chelate in comparison to Y-DOTA. Binding was measured by standard methods known to those of skill in the art. The DOTA analog used to evaluate binding was [S]-2-(p-nitrobenzyl)-DOTA, which is similar to the original antigen.

2D12.5 = test: Relative binding curves of 2D12.5 for Y-DOTA isomers, Y-DTPA and sidechain variants (FIG. 16, 17); set-up: species or system mouse; settings: for relative binding affinity for 2D12.5 (in words): coordinated metal Y^3+
Source text: FIG. 16 is a graphical display showing the relative binding curves of 2D12.5 for Y-DOTA isomers and Y-DTPA. 2D12.5 binds both the (R)- and (S)-isomer of 2-(4-nitrobenzyl)-DOTA when the coordinated metal is Y^3+ (the same behavior is expected for the other rare earths). The (S)-isomer confers Λ-helicity, while the (R)-isomer confers Δ-helicity to the acetate arms. […] Y-DOTA (no-sidearm) exists in solution as a racemic mixture of the coordination isomers.
FIG. 17 is a graphical display showing relative binding curves of Y-DOTA molecules with different sidechain locations. […] Evaluation of the crystal structure seems to indicate that shorter substitutions at the position may bind with higher affinity. Substitutions at other locations may yield reasonably high affinities as well. The (5-Amino-2-methoxy-phenyl)-carboxymethyl)-DOTA analyzed in this experiment was racemic, so it is not clear which isomer binds with higher affinity. The low pKa of the carboxymethyl proton makes it difficult to prepare a chirally pure molecule.

N85D_G54C 2D12.5 mutant = test: Permanent binding of metal-AABD and metal-NBD complexes to 2D12.5 Fab mutant N85D_G54C (Western blot)
Procedure: Metallation of Chelates with stable metal cations. Metals tested in this experiment included Y, La, Lu, Sr and Sc. Stock chelate concentrations were measured using a Co-57 metal binding assay (Meares et al., Anal. Biochem. 142:68-78, 1984). Stock metal solutions (approximately 0.2 M) were prepared by dissolving the appropriate gravimetrically measured rare earth chloride salt in 0.05 M HCl. As an example, YCl3 (2.5 equivalents) was added to 25 μL of NBD ([…]) dissolved in 0.1 M tetramethylammonium acetate, and the pH was adjusted to 5 by the addition of triethylamine. The metallation was allowed to proceed overnight at 50° C. Samples were promptly frozen at −70° C., and metallation efficiency was assessed using a competitive metal-binding assay with Co-57.^3 Excess metal was scavenged with DTPA, which has very low affinity for the antibody (<<1%).
Metal-AABD and metal-NBD complexes were incubated with 2D12.5 Fab mutant N85D_G54C and samples denatured, reduced and separated by SDS-PAGE, as described for Y-90 in the previous examples. […]

Compound	relative binding affinity compared with Y-DOTA (in words) (antibody 2D12.5)	relative binding affinity for 2D12.5 (in words) (2D12.5)	further results
O=C([O-])CN1CCN(CC(=O)[O-])CCN(CC(=O)[O-])CCN(CC(=O)[O-])CC1.[Tb+3] [Tb-DOTA]	strongest binders		
O=C([O-])CN1CCN(CC(=O)[O-])CCN(CC(=O)[O-])CCN(CC(=O)[O-])CC1.[Gd+3] [Gd-DOTA]	bind more tightly than the original Y^3+ complex		relative binding affinity compared with Y-DOTA (in words) (antibody 2D12.5; listed as Gd^3+): strongest binders
(5-Amino-2-methoxyphenyl)-carboxymethyl)-DOTA		still sufficiently strong	
O=C(O)CN1CCN(CC(=O)O)CCN(CC(=O)O)C(Cc2ccc([N+](=O)[O-])cc2)CN(CC(=O)O)CC1 (stereo not shown) [NBD, [S]-2-(p-nitrobenzyl)-DOTA]			permanent bond formation with N85D_G54C 2D12.5 mutant (N85D_G54C 2D12.5 mutant; Western blot, hybridoma-derived 2D12.5 as 1° stain): negative
O=C(O)CN1CCN(CC(=O)O)CCN(CC(=O)O)[C@H](Cc2ccc([N+](=O)[O-])cc2)CN(CC(=O)O)CC1 [(R)-isomer of 2-(4-nitrobenzyl)-DOTA, 2-(4-nitrobenzyl)-DOTA]		decreases less than an order of magnitude	
O=C(O)CN(CCN(CC(=O)O)CC(=O)O)CCN(CC(=O)O)CC(=O)O [DTPA]			affinity for the antibody (2D12.5; DTPA used to scavenge excess metal): < 1%
O=C([O-])CN1CCN(CC(=O)[O-])CCN(CC(=O)[O-])CCN(CC(=O)[O-])CC1.[Y+3] [Y-DOTA]		between that observed for the (S)- and (R)-isomers	Kd (antibody 2D12.5; DOTA analog used was [S]-2-(p-nitrobenzyl)-DOTA): 10 nM
O=C(O)CN1CCN(CC(=O)O)CCN(CC(=O)O)[C@@H](Cc2ccc([N+](=O)[O-])cc2)CN(CC(=O)O)CC1 [Y-NBD, (S)-2-(4-nitrobenzyl)-DOTA]		clearly stronger	binding strength of NBD complexes among the rare earths (N85D_G54C 2D12.5 mutant; Western blots): one of the strongest binders; relative binding affinity for 2D12.5 (in words) (2D12.5; listed as (S)-isomer of 2-(4-nitrobenzyl)-DOTA): preferred isomer for binding
O=C([O-])CN1CCN(CC(=O)[O-])CCN(CC(=O)[O-])CCN(CC(=O)[O-])CC1.[Eu+3] [Eu^3+]	strongest binders		
